Reference: patent publication US4782072A, “Thiadiazole derivative” (Reckitt & Colman Products Limited, priority 1986, dated 1988)

Experiments:
[1] = electroshock test (MES), rat; format: in vivo; conditions: read-out: ED50 (limits) RAT MES
Description: (§1) The pharmacological activity of the compound of the invention has been determined according to the following procedures. Its anticonvulsant activity was determined in the metrazol antagonism test in both mice and rats (MMS) (Soaje-Echaque E; Lim RKS, J Pharmac Exp Ther 1962, 138, 224; Desmedt LKC; Niemegeers CJE; Lewi PJ; Janssen PAJ, Arzneim-Forsch (Drug Res), 1976, 26, 1592) and the electroshock test (MES) (Perry JK; Tower DB; Woodbury DM; Walter RD, "Experimental Models of Epilepsy", editor Purpura DP; Raven Press: New York, 1972, 434).

[2] = metrazol antagonism test (MMS), rat; format: in vivo; conditions: read-out: ED50 (limits) RAT MMS
Description: as §1

[3] = electroshock test (MES), mouse; format: in vivo
Description: as §1

[4] = metrazol antagonism test (MMS), mouse; format: in vivo; conditions: read-out: ED50 (limits) MOUSE MMS
Description: as §1

in vivo = conditions: for TD50 ip at time of peak effect / TD50 po at 1 hour: rotarod; for TD50 ip at time of peak effect: at time of peak anticonvulsant effect; for TD50 po at 1 hour: dose at which 50% of trained animals fall off the rotarod
Description: An assessment of the neurotoxicity of the compound was carried out in mice using the rotarod test (Collier, HOJ; Fieller, EC; Hall, RA, Analyst, 1949, 74, 592).
^a Dose at which 50% of trained animals fall off the rotarod.
^b Protective index is calculated by dividing the TD50 (ip at
time of peak anticonvulsant effect) by the ED50 under the same

[5] = anticonvulsant tests (MES and MMS), rat and mouse, summary; format: in vivo; conditions: for anticonvulsant activity: electrically and chemically induced seizures
Description: as §1

[6] = ip, mouse, MES, i.p., at time of peak effect, read-out: ED50 (limits) MES at time of peak effect
[7] = mouse, MES, oral, t=1 hour, read-out: ED50 (limits) MOUSE MES
[8] = mouse, in vivo, ip, protective index (PI)

Compound | ED50 ([1]; rat, MES, oral, t=1 hour) | ED50 ([2]; rat, MMS, oral, t=1 hour) | ED50 [3, 6] | Time of peak effect ([3]; mouse, MES, i.p.) | ED50 [3, 7] | ED50 ([4]; mouse, MMS, oral, t=1 hour) | selectivity ratio (in vivo; [8]) | TD50 ip at time of peak effect (in vivo; ip) | TD50 po at 1 hour (in vivo) | also measured
NCc1nnc(-c2ccccc2-c2ccccc2)s1 [Example, 2-Aminomethyl-5-(2-biphenylyl)-1,3,4-thiadiazole] | 10 mg/kg | 9 mg/kg | 7 mg/kg | 10 min | 22 mg/kg | 20 mg/kg | 6.5 | 45(23-68) mg/kg | 318(230-471) mg/kg | rate of absorption ([5]; inferred from time of peak effect, ip and oral, in words): very rapid rate of absorption; time of peak effect by both methods of administration ([5]; intraperitoneal and oral routes, after dosing): ten and twenty; anticonvulsant activity ([5]; rat and mouse, in words, listed as compound of Formula 1): potent anticonvulsant activity; anticonvulsant activity ([5]; rat and mouse, in words, listed as the compound): potent anticonvulsant, blocking both electrically and chemically induced seizures; effectiveness by intraperitoneal and oral routes ([5]; rat and mouse, in words): effective by both the intraperitoneal and oral routes; potency relative to established anticonvulsant drugs ([5]; rat and mouse, in words): comparable with established anticonvulsant drugs
NC(=O)N1c2ccccc2C=Cc2ccccc21 [carbamazepine] | 4 mg/kg | 3 mg/kg | 6 mg/kg | 20 min | 20 mg/kg | 11 mg/kg | 11 | 67(29-108) mg/kg | 166(104-282) mg/kg | protective index (PI) (in vivo; in vivo, ip): 11.1
O=C1NC(=O)C(c2ccccc2)(c2ccccc2)N1 [phenytoin] | 14 mg/kg | 12 mg/kg | 8 mg/kg | 60 min | 8 mg/kg | 8 mg/kg | – | 56(27-74) mg/kg | 216(154-239) mg/kg | selectivity ratio (in vivo; in vivo, ip): 7
CCC1(c2ccccc2)C(=O)NC(=O)NC1=O [phenobarbital] | – | – | – | 30 min | – | – | – | 86(54-140) mg/kg | 68(52-92) mg/kg | ED50 ([1]; Rattus norvegicus, po, 1 h): 9 mg/kg; ED50 ([2]; Rattus norvegicus, po, 1 h): 4 mg/kg; ED50 ([3]; Mus musculus, ip, read-out: ED50 (limits) MES at time of peak effect): 18 mg/kg; ED50 ([3]; Mus musculus, po, 1 h, read-out: ED50 (limits) MOUSE MES): 12 mg/kg; ED50 ([4]; Mus musculus, po, 1 h): 4 mg/kg
